Data taken from ChEMBL document CHEMBL1141262, “Cytotoxic diterpenoids from the hybrid soft coral Sinularia maxima x Sinularia polydactyla” (2007).

Experiments:
Assay type in all cases: functional
LoVo [1] = assay: Cytotoxicity against doxorubicin resistant human LoVo cells after 72 hrs
[2] = Cytotoxicity against human IGROV cells after 72 hrs; settings: for CC50: read-out: LC50 (the source's name)
HeLa [3] = assay: Cytotoxicity against aplidine resistant human HeLa cells after 72 hrs; settings: for CC50: read-out: LC50 (the source's name)
SK-MEL-28 = assay: Cytotoxicity against human SK-MEL-28 cells after 72 hrs
PANC-1 = assay: Cytotoxicity against human PANC1 cells after 72 hrs; settings: for CC50: read-out: LC50 (the source's name)
HeLa [4] = assay: Cytotoxicity against human HeLa cells after 72 hrs; settings: for CC50: read-out: LC50 (the source's name)
A549 = assay: Cytotoxicity against human A549 cells after 72 hrs
HT-29 = assay: Cytotoxicity against human HT29 cells after 72 hrs
SK-BR-3 = assay: Cytotoxicity against human SK-BR3 cells after 72 hrs; settings: for CC50: read-out: LC50 (the source's name)
DU-145 = assay: Cytotoxicity against human DU145 cells after 72 hrs; settings: for CC50: read-out: LC50 (the source's name)
K562 = assay: Cytotoxicity against human K562 cells after 72 hrs; settings: for CC50: read-out: LC50 (the source's name)
LNCaP = assay: Cytotoxicity against human LNcaP cells after 72 hrs; settings: for CC50: read-out: LC50 (the source's name)
LoVo [5] = assay: Cytotoxicity against human LoVo cells after 72 hrs; settings: for CC50: read-out: LC50 (the source's name)
[6] = Cytotoxicity against ET-743 resistant human IGROV cells after 72 hrs

SMILES: C=C(C)[C@H]1C/C2=C(\C(=O)OC)[C@@H]3O[C@@](C)(CC3=O)C[C@@H]3C=C(C(=O)O3)[C@H](C1)O2
- GI50 (LoVo [1]; Homo sapiens, LoVo, 72 h): 5660 nM
- LC50 (LoVo [1]; Homo sapiens, LoVo, 72 h): > 25.6 µM
- TGI (LoVo [1]; Homo sapiens, LoVo, 72 h): 16.5 µM
- GI50 ([2]; Homo sapiens, IGROV, 72 h): 4.05 µM
- TGI ([2]; Homo sapiens, IGROV, 72 h): 7.68 µM
- CC50 ([2]; Homo sapiens, IGROV, 72 h): 14.6 µM
- GI50 (HeLa [3]; Homo sapiens, HeLa, 72 h): 3.77 µM
- TGI (HeLa [3]; Homo sapiens, HeLa, 72 h): 7.5 µM
- CC50 (HeLa [3]; Homo sapiens, HeLa, 72 h): 15 µM
- GI50 (SK-MEL-28; Homo sapiens, SK-MEL-28, 72 h): 4.25 µM
- LC50 (SK-MEL-28; Homo sapiens, SK-MEL-28, 72 h): 13.6 µM
- TGI (SK-MEL-28; Homo sapiens, SK-MEL-28, 72 h): 7.61 µM
- GI50 (PANC-1; Homo sapiens, PANC-1, 72 h): 3640 nM
- TGI (PANC-1; Homo sapiens, PANC-1, 72 h): 7.15 µM
- CC50 (PANC-1; Homo sapiens, PANC-1, 72 h): 14.1 µM
- GI50 (HeLa [4]; Homo sapiens, HeLa, 72 h): 4.38 µM
- TGI (HeLa [4]; Homo sapiens, HeLa, 72 h): 8.04 µM
- CC50 (HeLa [4]; Homo sapiens, HeLa, 72 h): 14.8 µM
- GI50 (A549; Homo sapiens, A549, 72 h): 5.56 µM
- LC50 (A549; Homo sapiens, A549, 72 h): 25.6 µM
- TGI (A549; Homo sapiens, A549, 72 h): 11.9 µM
- GI50 (HT-29; Homo sapiens, HT-29, 72 h): 6.48 µM
- LC50 (concentration killing 50% of cells) (HT-29; Homo sapiens, HT-29, 72 h): > 25.6 µM
- TGI (HT-29; Homo sapiens, HT-29, 72 h): 15.4 µM
- GI50 (SK-BR-3; Homo sapiens, SK-BR-3, 72 h): 6400 nM
- TGI (SK-BR-3; Homo sapiens, SK-BR-3, 72 h): 11400 nM
- CC50 (SK-BR-3; Homo sapiens, SK-BR-3, 72 h): 20.3 µM
- GI50 (DU-145; Homo sapiens, DU-145, 72 h): 4.35 µM
- TGI (DU-145; Homo sapiens, DU-145, 72 h): 8.32 µM
- CC50 (DU-145; Homo sapiens, DU-145, 72 h): 15.9 µM
- GI50 (K562; Homo sapiens, K562, 72 h): 5.58 µM
- TGI (K562; Homo sapiens, K562, 72 h): 8.89 µM
- CC50 (K562; Homo sapiens, K562, 72 h): 14.2 µM
- GI50 (LNCaP): 5.05 µM
- TGI (LNCaP): 8.96 µM
- CC50 (LNCaP): 15.9 µM
- GI50 (LoVo [5]; Homo sapiens, LoVo, 72 h): 3.41 µM
- TGI (LoVo [5]; Homo sapiens, LoVo, 72 h): 6.61 µM
- CC50 (LoVo [5]; Homo sapiens, LoVo, 72 h): 12.8 µM
- GI50 ([6]; Homo sapiens, IGROV, 72 h): 4.56 µM
- LC50 (50% lethal concentration) ([6]; Homo sapiens, IGROV, 72 h): 16.5 µM
- TGI ([6]; Homo sapiens, IGROV, 72 h): 8.68 µM

SMILES: C=C(C)[C@H]1C/C2=C(\C(=O)OC)C(OC(C)CC)C(=O)/C=C(\C)C[C@@H]3C=C(C(=O)O3)[C@H](C1)O2 (stereo in doubt; 2)
- GI50 (LoVo [1]): 1870 nM
- LC50 (LoVo [1]): 11.9 µM
- TGI (LoVo [1]): 4.95 µM
- GI50 [2]: 3.4 µM
- TGI [2]: 6.91 µM
- CC50 [2]: 14.1 µM
- GI50 (HeLa [3]): 3.17 µM
- TGI (HeLa [3]): 8.5 µM
- CC50 (HeLa [3]): 22.5 µM
- GI50 (SK-MEL-28): 3.13 µM
- LC50 (SK-MEL-28): 13.5 µM
- TGI (SK-MEL-28): 6.5 µM
- GI50 (PANC-1): 2900 nM
- TGI (PANC-1): 6.91 µM
- CC50 (PANC-1): 16.5 µM
- GI50 (HeLa [4]): 3.33 µM
- TGI (HeLa [4]): 7.29 µM
- CC50 (HeLa [4]): 16 µM
- GI50 (A549): 5.85 µM
- LC50 (A549): > 22.5 µM
- TGI (A549): 12.3 µM
- GI50 (HT-29): 4.93 µM
- LC50 (concentration killing 50% of cells) (HT-29): 18.5 µM
- TGI (HT-29): 9.54 µM
- GI50 (SK-BR-3): 580 nM
- TGI (SK-BR-3): 1430 nM
- GI50 (DU-145): 3.98 µM
- TGI (DU-145): 7.56 µM
- CC50 (DU-145): 14.4 µM
- GI50 (K562): 5.26 µM
- TGI (K562): 9.45 µM
- CC50 (K562): 17 µM
- GI50 (LoVo [5]): 3.46 µM
- TGI (LoVo [5]): 7.49 µM
- CC50 (LoVo [5]): 16.2 µM
- GI50 [6]: 3.96 µM
- LC50 (50% lethal concentration) [6]: 15.8 µM
- TGI [6]: 7.92 µM

SMILES: C=C(C)[C@H]1C/C2=C(\C(=O)OC)C(OC(C)CC)C(=O)/C=C(\C)C[C@@H]3C=C(C(=O)O3)[C@H](C1)O2 (stereo in doubt; 3)
- GI50 (LoVo [1]): 750 nM
- LC50 (LoVo [1]; Homo sapiens, LoVo, 72 h): 13.8 µM
- TGI (LoVo [1]; Homo sapiens, LoVo, 72 h): 2.72 µM
- GI50 [2]: 0.52 µM
- TGI [2]: 1.1 µM
- CC50 [2]: 3.3 µM
- GI50 (HeLa [3]): 0.56 µM
- TGI (HeLa [3]): 1.31 µM
- CC50 (HeLa [3]): 5.26 µM
- GI50 (SK-MEL-28): 0.54 µM
- LC50 (SK-MEL-28): 2.13 µM
- TGI (SK-MEL-28): 1.08 µM
- GI50 (PANC-1): 580 nM
- TGI (PANC-1): 1.57 µM
- CC50 (PANC-1): 7.4 µM
- GI50 (HeLa [4]): 0.48 µM
- TGI (HeLa [4]): 0.93 µM
- CC50 (HeLa [4]): 1.8 µM
- GI50 (A549): 1.32 µM
- TGI (A549): 4.59 µM
- LC50 (A549; Homo sapiens, A549, 72 h): 16.3 µM
- GI50 (HT-29): 1.47 µM
- TGI (HT-29): 4.14 µM
- LC50 (concentration killing 50% of cells) (HT-29; Homo sapiens, HT-29, 72 h): 11.1 µM
- GI50 (SK-BR-3): 39 nM
- TGI (SK-BR-3): 280 nM
- CC50 (SK-BR-3; Homo sapiens, SK-BR-3, 72 h): > 22.5 µM
- GI50 (DU-145): 1.95 µM
- TGI (DU-145; Homo sapiens, DU-145, 72 h): 5.31 µM
- CC50 (DU-145; Homo sapiens, DU-145, 72 h): 13.5 µM
- GI50 (K562): 1.21 µM
- TGI (K562): 2.47 µM
- CC50 (K562; Homo sapiens, K562, 72 h): 10.6 µM
- GI50 (LNCaP): 1.69 µM
- TGI (LNCaP): 5.17 µM
- CC50 (LNCaP): 14.3 µM
- GI50 (LoVo [5]): 0.51 µM
- TGI (LoVo [5]): 1.16 µM
- CC50 (LoVo [5]): 3.8 µM
- GI50 [6]: 1.03 µM
- TGI [6]: 3.64 µM
- LC50 (50% lethal concentration) ([6]; Homo sapiens, IGROV, 72 h): 20.4 µM
